Reference: patent US20240025862A1, “SUBSTITUTED N-PHENYLURACILS AND SALTS THEREOF, AND USE THEREOF AS HERBICIDAL ACTIVE SUBSTANCES” (Bayer Aktiengesellschaft, priority 2020, published 2024)

Legend:
Type in all cases: in vivo
[1] = tested on: Echinochloa crus-galli (ECHCG); assay: Post-emergence herbicidal action, greenhouse pot test (also comparative test C)
Procedure, shortened: (§1)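 Greenhouse pot plants in sandy loam were sprayed post-emergence at the one-leaf stage (2–3 weeks after sowing) with WP or EC formulations plus 0.5% additive at 600 l/ha water. Activity was rated visually after about 3 weeks versus untreated controls (100% = dead, 0% = like control); rates were 20 g/ha or less, and 5 g/ha or less in the comparative test.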

[2] = tested on: Alopecurus myosuroides (ALOMY); assay: as above; conditions: rated visually after about 3 weeks vs untreated controls, 100% = plants have died
Procedure, shortened: as §1

[3] = tested on: Matricaria inodora (MATIN); assay: as above
Procedure, shortened: as §1

[4] = tested on: Setaria viridis (SETVI); assay: as above; conditions: for Post-emergence action against SETVI: 20 g/ha
Procedure, shortened: as §1

[5] = tested on: Triticum aestivum (TRZAS); assay: Post-emergence crop plant compatibility, greenhouse pot test; conditions: vs untreated controls
Procedure, shortened: (§2)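 Greenhouse-grown crop plants sprayed post-emergence at the one-leaf stage with WP or EC formulations plus 0.5% additive, at 600 l/ha water. Damage rated visually after about 3 weeks versus untreated controls (0% = like control, 100% = dead); suffixes a/b/c denote different dosages.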

[6] = tested on: Oryza sativa (ORYSA); assay: Post-emergence crop plant compatibility, greenhouse pot test (also comparative test C); conditions: for Post-emergence action against ORYSA (crop plant compatibility): vs untreated controls
Procedure, shortened: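 Rice and other crops sprayed post-emergence at one-leaf stage (2–3 weeks after sowing) with WP or EC formulations plus 0.5% additive at 600 l/ha water. Visual rating about 3 weeks later versus untreated controls (100% = dead, 0% = like control); suffixes a–c denote different doses.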

[7] = tested on: Amaranthus retroflexus (AMARE); assay: Post-emergence herbicidal action, greenhouse pot test; conditions: rated visually after about 3 weeks vs untreated controls, 100% = plants have died
Procedure, shortened: (§3)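 Greenhouse-grown weeds in sandy loam were sprayed post-emergence at the one-leaf stage, 2–3 weeks after sowing. Compounds were formulated as WP or EC in water with 0.5% additive at 600 l/ha, at rates of 20 g/ha or less. Visual rating after about 3 weeks used a scale from 0% (like untreated control) to 100% (plants dead).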

[8] = tested on: Polygonum convolvulus (POLCO); assay: as above
Procedure, shortened: as §3

[9] = tested on: Abutilon theophrasti (ABUTH); assay: as above; conditions: rated visually after about 3 weeks vs untreated controls, 100% = plants have died
Procedure, shortened: as §3

[10] = tested on: Veronica persica (VERPE); assay: as above
Procedure, shortened: as §3

[11] = tested on: Pharbitis purpurea (PHBPU); assay: as above
Procedure, shortened: as §3

[12] = tested on: Viola tricolor (VIOTR); assay: as above
Procedure, shortened: as §3

[13] = tested on: Avena fatua (AVEFA); assay: as above; conditions: 20 g/ha, rated visually after about 3 weeks vs untreated controls, 100% = plants have died
Procedure, shortened: as §3

[14] = tested on: Zea mays (ZEAMX); assay: Post-emergence crop plant compatibility, greenhouse pot test; conditions: 1.25 g/ha, vs untreated controls
Procedure, shortened: as §2

Compound	Post-emergence action against ECHCG in % ([1]; dosage 5 g/ha)	Post-emergence action against ECHCG in % ([1]; dosage 20 g/ha)	Post-emergence action at 20 g/ha against ALOMY in % [2]	Post-emergence action against MATIN in % ([3]; dosage 20 g/ha)	Post-emergence action against SETVI [4]	Post-emergence action against SETVI in % ([4]; dosage 1.25 g/ha)	Post-emergence action against SETVI in % ([4]; dosage 5 g/ha)	Post-emergence action against TRZAS (crop plant compatibility) ([5]; 1.25 g/ha)	Post-emergence action against ORYSA (crop plant compatibility) ([6]; 1.25 g/ha)	Post-emergence action at 5 g/ha against AMARE in % [7]	Post-emergence action at 20 g/ha against AMARE in % [7]	Post-emergence action against POLCO in % ([8]; dosage 5 g/ha)	Post-emergence action against POLCO in % ([8]; dosage 20 g/ha)	Post-emergence action at 1.25 g/ha against ABUTH in % [9]	Post-emergence action at 5 g/ha against ABUTH in % [9]	Post-emergence action at 20 g/ha against ABUTH in % [9]	Post-emergence action against VERPE ([10]; 1.25 g/ha)	Post-emergence action against VERPE ([10]; 5 g/ha)	Post-emergence action against VERPE ([10]; 20 g/ha)	Post-emergence action against PHBPU in % ([11]; dosage 5 g/ha)	further results
COCCOCCOC(=O)COc1ccccc1Oc1cc(-n2c(=O)cc(C(F)(F)F)n(C)c2=O)c(F)cc1Br [I.8-23]	100%	100%	100%	100%	100%	100%	100%	10%	0%	100%	100%	100%	100%	100%	100%	100%	80%	100%	100%	100%	Post-emergence action at 5 g/ha against ALOMY in % ([2]; 5 g/ha): 80%; Post-emergence action against MATIN in % ([3]; dosage 5 g/ha): 100%; Post-emergence action against TRZAS (crop plant compatibility) ([5]; 5 g/ha): 20%; Post-emergence action against ORYSA (crop plant compatibility) ([6]; 5 g/ha): 0%; Post-emergence action against ORYSA in % ([6]; 20 g/ha, crop plant compatibility): 20%; Post-emergence action at 1.25 g/ha against AMARE in % [7]: 100%; Post-emergence action against PHBPU in % ([11]; dosage 1.25 g/ha): 100%; Post-emergence action against PHBPU in % ([11]; dosage 20 g/ha): 100%; Post-emergence action against VIOTR ([12]; 1.25 g/ha): 100%; Post-emergence action against VIOTR ([12]; 5 g/ha): 100%; Post-emergence action against VIOTR ([12]; 20 g/ha): 100%; Post-emergence action at 20 g/ha against AVEFA in % [13]: 80%
COCCOC(=O)COc1ccc(F)cc1Oc1cc(-n2c(=O)cc(C(F)(F)F)n(C)c2=O)c(F)cc1Cl [I.23-1]	100%	100%	90%	100%	100%	100%	100%	20%	0%	100%	100%	100%	100%	100%	100%	100%	80%	100%	100%	80%	Post-emergence action against MATIN in % ([3]; dosage 5 g/ha): 80%; Post-emergence action against ZEAMX (crop plant compatibility) [14]: 20%; Post-emergence action against POLCO in % ([8]; dosage 1.25 g/ha): 90%; Post-emergence action against PHBPU in % ([11]; dosage 20 g/ha): 80%; Post-emergence action against VIOTR ([12]; 1.25 g/ha): 80%; Post-emergence action against VIOTR ([12]; 5 g/ha): 100%; Post-emergence action against VIOTR ([12]; 20 g/ha): 100%
Cn1c(C(F)(F)F)cc(=O)n(-c2cc(Oc3cc(F)ccc3OCC(=O)OCC#N)c(Cl)cc2F)c1=O [I.23-176]	100%	100%	100%	80%	100%	100%	100%	10%	0%	100%	100%	100%	100%	80%	100%	100%	100%	100%	100%	90%	Post-emergence action against ZEAMX (crop plant compatibility) [14]: 20%; Post-emergence action against ORYSA (crop plant compatibility) ([6]; 5 g/ha): 20%; Post-emergence action at 1.25 g/ha against AMARE in % [7]: 100%; Post-emergence action against PHBPU in % ([11]; dosage 1.25 g/ha): 90%; Post-emergence action against PHBPU in % ([11]; dosage 20 g/ha): 100%; Post-emergence action against VIOTR ([12]; 1.25 g/ha): 90%; Post-emergence action against VIOTR ([12]; 5 g/ha): 100%; Post-emergence action against VIOTR ([12]; 20 g/ha): 100%
